We go through 10 compounds from ChEMBL document CHEMBL4261582, “Natural products as inhibitors of Leishmania major dihydroorotate dehydrogenase” (Eur J Med Chem, 2018).

The term pIC50 denotes −log10 of the IC50, conventionally taken in molar units. One may read the inhibition as the drop in the measured response relative to a control, in per cent. By ΔTm is commonly meant the shift of the melting midpoint relative to a reference.

The structures appear in SMILES notation. pIC50: −log10 of the molar value. Some results are limits rather than exact numbers.

The test system of test [1] is Trypanosoma cruzi. In words: Antitrypanosomal activity against Trypanosoma cruzi amastigotes. Type of test: functional, organism-based.
A further test deals with Leishmania infantum. In words: Antileishmanial activity against Leishmania infantum MHOM/BR/1972/LD promastigotes. Type of test: functional, organism-based.
The test system of test [2] is Leishmania donovani. In words: Antileishmanial activity against Leishmania donovani amastigotes. The test is classed as functional, organism-based.
Test [3] relates to Trypanosoma brucei rhodesiense. Kind of test: Antitrypanosomal activity against Trypanosoma brucei rhodesiense STIB900 trypomastigotes. The test is classed as functional, organism-based.
The target in test [4] is T1, Dihydroorotate dehydrogenase (fumarate) (Leishmania major, UniProt Q4QEW7).
T1 sequence (Q4QEW7 whole entry): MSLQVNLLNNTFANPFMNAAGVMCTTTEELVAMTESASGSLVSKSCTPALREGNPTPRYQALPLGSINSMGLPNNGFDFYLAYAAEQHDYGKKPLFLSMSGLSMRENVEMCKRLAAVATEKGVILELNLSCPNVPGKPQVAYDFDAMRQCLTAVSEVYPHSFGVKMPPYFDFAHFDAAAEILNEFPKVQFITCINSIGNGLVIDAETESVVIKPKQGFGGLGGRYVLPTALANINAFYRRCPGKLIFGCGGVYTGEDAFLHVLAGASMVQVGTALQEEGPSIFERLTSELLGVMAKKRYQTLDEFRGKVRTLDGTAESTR
In words: Inhibition of recombinant oligo-histidine-tagged Leishmania major DHODH expressed in Escherichia coli BL21(DE3) cells using DHO as substrate measured after 60 secs. As to conditions: read-out: IC50.

For a further test, the system named is Trypanosoma brucei. In words: Antitrypanosomal activity against Trypanosoma brucei TC221 trypomastigotes after 24 hrs by Alamar Blue assay. Type of test: functional, organism-based. As to conditions: TC221, 24 h. On the technique in general: Alamar Blue is a resazurin reagent that responds to reducing activity.
The test system of test [5] is Leishmania amazonensis. In words: Antileishmanial activity against Leishmania amazonensis MHOM/BR/77/LTB 0016 amastigotes infected in mouse peritoneal macrophages after 72 hrs by staining-based assay. The test is classed as functional, organism-based. As to conditions: MHOM/BR/77/LTB 0016, 72 h.
Test [6] has as its system Leishmania amazonensis. Kind of test: Antileishmanial activity against Leishmania amazonensis MHOM/BR/77/LTB 0016 promastigotes after 72 hrs by MTT assay. The test is classed as functional, organism-based. As to conditions: MHOM/BR/77/LTB 0016, 72 h. A general note: Tetrazolium assays rely on reduction of a dye to a coloured formazan, in cell work by metabolically active cells.

The test system of test [7] is Trypanosoma cruzi. Kind of test: Antitrypanosomal activity against Trypanosoma cruzi Tulahuen C2C4 trypomastigotes infected in rat skeletal myoblasts L-6 cells after 96 hrs by CPRG/Nonidet reagent based spectrophotometric method. The test is classed as functional, organism-based. As to conditions: Tulahuen C2C4, L6, 96 h.
Test [8] concerns Trypanosoma brucei rhodesiense. Kind of test: Antitrypanosomal activity against Trypanosoma brucei rhodesiense STIB900 trypomastigotes after 72 hrs by Alamar Blue assay. To be noted: STIB 900, 72 h. Type of test: functional, organism-based.
Test [9] concerns Leishmania donovani. Kind of test: Antileishmanial activity against Leishmania donovani MHOM/ET/67/L82 amastigotes after 72 hrs by Alamar Blue assay. Type of test: functional, organism-based. To be noted: MHOM/ET/67/L82, 72 h.
Test [10] concerns the target Dihydroorotate dehydrogenase (quinone), mitochondrial (Homo sapiens) (UniProt Q02127). In words: Inhibition of human DHODH at 100 uM.
In test [11] the target is T2, Dihydroorotate dehydrogenase (fumarate) (Leishmania major) (UniProt Q4QEW7).
T2 sequence (whole entry): T1 sequence (Q4QEW7 whole entry)
In words: Binding affinity to Leishmania major DHODH assessed as change in melting temperature at 500 uM by SYPRO orange dye-based differential scanning fluorimetry.

Test [12] concerns the target T2, Dihydroorotate dehydrogenase (fumarate) (Leishmania major). Kind of test: Inhibition of recombinant oligo-histidine-tagged Leishmania major DHODH expressed in Escherichia coli BL21(DE3) cells at 100 uM using DHO as substrate measured after 60 secs.
For test [13] the target is unchanged. Kind of test: Binding affinity to Leishmania major DHODH assessed as change in melting temperature at 1000 uM by SYPRO orange dye-based differential scanning fluorimetry. On the technique in general: In DSF a fluorescence change marks the thermal transition of the protein.
The target is the same in test [14]. Kind of test: Binding affinity to Leishmania major DHODH assessed as change in melting temperature at 100 uM by differential scanning fluorimetry-based ThermoFMN assay.
Test [15] has as its system Leishmania braziliensis. Kind of test: Antileishmanial activity against Leishmania braziliensis promastigotes. Type of test: functional, organism-based.
The target of test [16] is T2, Dihydroorotate dehydrogenase (fumarate) (Leishmania major). In words: Binding affinity to Leishmania major DHODH assessed as change in melting temperature at 500 uM by differential scanning fluorimetry-based ThermoFMN assay.
For test [17], the system named is Leishmania amazonensis. Kind of test: Antileishmanial activity against Leishmania amazonensis promastigotes. The test is classed as functional, organism-based.
Test [18] concerns the target T2, Dihydroorotate dehydrogenase (fumarate) (Leishmania major). Kind of test: Binding affinity to Leishmania major DHODH assessed as change in melting temperature at 1000 uM by differential scanning fluorimetry-based ThermoFMN assay.
Test [19] shares this target. In words: Binding affinity to Leishmania major DHODH assessed as change in melting temperature at 100 uM by SYPRO orange dye-based differential scanning fluorimetry.
Test [20] shares this target. Kind of test: Inhibition of recombinant oligo-histidine-tagged Leishmania major DHODH expressed in Escherichia coli BL21(DE3) cells at 150 uM using DHO as substrate measured after 60 secs.
The test system of test [21] is Trypanosoma cruzi. Kind of test: Antitrypanosomal activity against Trypanosoma cruzi Y amastigotes after 24 hrs by Gential violet staining-based assay. Type of test: functional, organism-based.
Test [22] relates to Leishmania amazonensis. Kind of test: Antileishmanial activity against Leishmania amazonensis WHOM/BR/75/Josefa amastigotes after 72 hrs by Neubauer chamber method. Type of test: functional, organism-based.
The test system of test [23] is Leishmania amazonensis. Kind of test: Antileishmanial activity against Leishmania amazonensis WHOM/BR/75/Josefa promastigotes after 72 hrs by Neubauer chamber method. The test is classed as functional, organism-based.
Test [24] has as its system Leishmania donovani. In words: Antileishmanial activity against Leishmania donovani MHOM/ET/67/L82 axenic amastigotes after 72 hrs by resazurin dye-based fluorescence assay. Type of test: functional, organism-based. As to conditions: MHOM/ET/67/L82, 72 h.
Test [25] concerns Trypanosoma cruzi. Kind of test: Antitrypanosomal activity against Trypanosoma cruzi Tulahuen trypomastigotes after 96 hrs by CPRG/Nonidet reagent based spectrophotometric method. Type of test: functional, organism-based.
For test [26], the system named is Trypanosoma brucei rhodesiense. In words: Antitrypanosomal activity against Trypanosoma brucei rhodesiense STIB 900 trypomastigotes after 72 hrs by resazurin dye-based fluorescence assay. The test is classed as functional, organism-based. To be noted: STIB 900, 72 h.
Test [27] concerns Trypanosoma cruzi. In words: Antitrypanosomal activity against Trypanosoma cruzi Y amastigotes infected in Swiss albino mouse measured on day 7 post infection by Gential violet staining-based assay. Type of test: functional, organism-based. To be noted: 168 h.
Test [28] relates to Leishmania braziliensis. In words: Antileishmanial activity against Leishmania braziliensis H3227 MHOM/BR/94/H-3227 promastigotes after 72 hrs by MTT assay. Type of test: functional, organism-based. As to conditions: H3227 MHOM/BR/94/H-3227, 72 h.

Dihydroorotate dehydrogenase (quinone), mitochondrial (Homo sapiens), sequence (Q02127 whole entry): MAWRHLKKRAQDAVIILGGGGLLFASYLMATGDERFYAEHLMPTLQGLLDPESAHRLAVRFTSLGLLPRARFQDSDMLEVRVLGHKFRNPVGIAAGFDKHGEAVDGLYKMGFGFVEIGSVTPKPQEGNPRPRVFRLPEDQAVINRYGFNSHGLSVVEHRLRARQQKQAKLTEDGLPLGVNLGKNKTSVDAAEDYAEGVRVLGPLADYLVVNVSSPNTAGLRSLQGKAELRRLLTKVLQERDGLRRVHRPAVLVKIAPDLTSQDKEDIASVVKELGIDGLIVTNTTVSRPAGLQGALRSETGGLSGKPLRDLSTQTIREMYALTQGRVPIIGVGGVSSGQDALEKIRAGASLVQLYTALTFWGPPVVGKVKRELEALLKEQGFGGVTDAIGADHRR

Consider `C=C1C(=O)O[C@@H]2/C=C(/CO)C3=CC(=O)[C@@](C)(C[C@@H](OC(=O)/C(C)=C\C)[C@@H]12)O3`, for which the pIC50 with Trypanosoma cruzi [1] is 5.76; in the test on Leishmania infantum, 4.55; in the test with Leishmania donovani [2], 5.29; in test [3], 7.15; in [4] it was 3.19.

For `CN1[C@@H]2C[C@H](OC(=O)[C@H](CO)c3ccccc3)C[C@H]1[C@@H]1O[C@@H]12`, the pIC50 in the test with Trypanosoma brucei is below 4.00; in test [4], 3.10; in the test with Leishmania amazonensis [5] it was below 4.60; in the test with Leishmania amazonensis [6], below 4.00.

Take `CC[C@H](CC[C@H](C)[C@H]1CC[C@H]2[C@@H]3CC=C4C[C@@H](O)CC[C@]4(C)[C@H]3CC[C@]12C)C(C)C`: the negative logarithm of the IC50 (pIC50) in the test with Trypanosoma cruzi [7] is 4.45; in test [8], 4.06; in the test on Leishmania donovani [9], 4.56; in test [4], 3.38.

Regarding `CC(=O)OCC1=C2[C@@H](OC(C)=O)C[C@@](C)(OC(C)=O)C(=O)CC[C@@]3(C)O[C@@H]3[C@H]2OC1=O`, the inhibition in test [10] came out at 0%; in test [12], 41%. In addition, the ΔTm in test [11] was -0.47 °C; in test [13], -0.64 °C; in [14], -0.21 °C; in test [16], -0.41 °C; in [18] it was -0.7 °C; in test [19] it was -0.27 °C. In addition, the pIC50 in the test on Leishmania braziliensis [15] was 4.55; in the test with Leishmania amazonensis [17] it was 4.34; in test [4], 4.51.

For the compound `C=C1C(=O)O[C@@H]2[C@H]3C(C)=CC(=O)C3=C(C)C[C@@H](OC(=O)/C(C)=C/C)[C@@H]12`, the inhibition in [10] amounted to 3%; in test [20], 64%. Also, the pIC50 in [4] was 4.57.

`C=C[C@]1(C)C=C2CC[C@H]3[C@@](C)(CCC[C@]3(C)C(=O)O)[C@@H]2CC1`: the results for the negative logarithm of the IC50 (pIC50) (in the test with Trypanosoma cruzi [21]; in test [4]) were 3.41 and 2.88, respectively.

For `C=C1CC[C@H]2[C@@](C)(CCC[C@@]2(C)C(=O)O)[C@@H]1CC/C(C)=C/C(=O)O`, the negative logarithm of the IC50 (pIC50) in the test on Leishmania amazonensis [22] was 4.29 to 4.32; in the test on Leishmania amazonensis [23] it was 3.96 to 4.08; in [4] it was 3.15.

With `C=C1C(=O)O[C@@H]2/C=C(\CO)CC/C=C(\C)C[C@H](OC(=O)C(=C)[C@@H](O)CO)[C@@H]12`, the negative-log IC50 (pIC50) with Leishmania donovani [24] is 4.82; in the test with Trypanosoma cruzi [25] it was 4.77; in test [4], 3.44; in [26], 5.89.

For the compound `COc1cc(O)c2c(=O)cc(-c3ccc(OC)c(OC)c3)oc2c1`, the pIC50 (in test [4]; in the test on Trypanosoma cruzi [27]) was 3.66 each time.

As for `C=C1C(=O)O[C@@H]2/C=C(/C)C(=O)[C@@H]3O[C@H]3[C@](C)(O)C[C@@H](OC(=O)C(C)C)[C@@H]12`, the inhibition in test [10] is 12%; in test [12], 42%. The values for the pIC50 (in the test on Leishmania braziliensis [28]; in [4]) were 5.22 and 3.99, respectively.
